Laboratory results taken from ChEMBL document CHEMBL4342451, “α-Glucosidase Inhibitory Isomeric Corniculatolides from the Stems of the Indian Mangrove Plant, Xylocarpus granatum” (J Nat Prod, 2020).
The source made the active and inactive calls. The calls are words filed in the database; no cut-off is given here.

Experiments:
[1] = Inhibition of Saccharomyces cerevisiae alpha-glucosidase assessed as decrease in release of p-nitrophenol using pNPG as substrate preincubated for 15 min followed by substrate addition and measured after 5 mins by spectrophotometric method
MIA PaCa-2 = assay: Cytotoxicity against human MIAPaCa2 cells assessed as reduction in cell viability at 1 to 100 uM incubated for 24 to 48 hrs by SRB assay; format: functional, cell-based
MCF7 = assay: Cytotoxicity against human MCF7 cells assessed as reduction in cell viability at 1 to 100 uM incubated for 24 to 48 hrs by SRB assay; format: functional, cell-based
DU-145 = assay: Cytotoxicity against human DU145 cells assessed as reduction in cell viability at 1 to 100 uM incubated for 24 to 48 hrs by SRB assay; format: functional, cell-based
HCT-116 = assay: Cytotoxicity against human HCT116 cells assessed as reduction in cell viability at 1 to 100 uM incubated for 24 to 48 hrs by SRB assay; format: functional, cell-based

SMILES | IC50 [1] [µM] | Activity (MIA PaCa-2) | Activity (MCF7) | Activity (DU-145) | Activity (HCT-116)
C[C@H]1O[C@H](O[C@H]2[C@H](O)[C@@H](O)[C@@H](O[C@H]3[C@H](O)[C@@H](O)C(O)O[C@@H]3CO)O[C@@H]2CO)[C@H](O)[C@@H](O)[C@@H]1N[C@H]1C=C(CO)[C@@H](O)[C@H](O)[C@H]1O (stereo partly specified) [ACARBOSE] | 12.2 |  |  |  | 
COc1ccc2cc1Oc1ccc(cc1)CCCOC(=O)CC2 | 65.4 | inactive | inactive | inactive | inactive
COc1c(O)cc2cc1Oc1ccc(cc1)CCCOC(=O)CC2 | > 200 | inactive | inactive | inactive | inactive
O=C1CCc2ccc(O)c(c2)Oc2ccc(cc2)CCCO1 [CORNICULATOLIDE A] | 187 | inactive | inactive | inactive | inactive
COc1cc2cc(c1OC)Oc1ccc(cc1)CCCOC(=O)CC2 | 72.3 | inactive | inactive | inactive | inactive
O=C1CCc2cc(O)c(O)c(c2)Oc2ccc(cc2)CCCO1 | 24.8 | inactive | inactive | inactive | inactive
COc1cc2cc(c1OC)Oc1ccc(cc1)CCC(=O)OCCC2 | 134 | inactive | inactive | inactive | inactive
O=C1CCc2ccc(cc2)Oc2cc(ccc2O)CCCO1 [ISOCORNICULATOLIDE A] | > 200 | inactive | inactive | inactive | inactive
